Row | SMILES | logP
1 | O=C(O)CCCCCC(=O)O | 0.61
2 | CCCCc1ccc(CC(=O)O)cc1 | 3.25
3 | CCCCCCc1ccc(CC(=O)O)cc1 | 4.25
4 | O=C1c2ccccc2C(=O)C1c1ccc(Br)cc1 | 3.76
5 | CCCCCCCCCCCC(=O)O | 4.92
6 | COc1cc(OC)cc(C2C(=O)c3ccccc3C2=O)c1 | 2.86
7 | CC(C)(C)c1cccc(C2C(=O)c3ccccc3C2=O)c1 | 4.88
8 | CCc1ccc(C2C(=O)c3ccccc3C2=O)cc1 | 3.92
9 | CCCc1ccc(CC(=O)O)cc1 | 2.75
10 | COc1ccc(C2C(=O)c3ccccc3C2=O)cc1 | 2.88
11 | CCCCCc1ccc(CC(=O)O)cc1 | 3.75
12 | CC(C)c1cc(C(C)C)cc(C2C(=O)c3ccccc3C2=O)c1 | 5.96
13 | Cc1cccc(C2C(=O)c3ccccc3C2=O)c1 | 3.46
14 | Cc1ccc(C2C(=O)c3ccccc3C2=O)cc1 | 3.46
15 | CCCCCCCCC(=O)O | 3.42
16 | O=C1c2ccccc2C(=O)C1c1ccc(Cl)cc1 | 3.61
17 | Cc1ccc(C(=O)O)c(C)c1 | 3.01
18 | O=C(O)c1cc([N+](=O)[O-])ccc1O | 1.98
19 | O=[N+]([O-])c1cc(Cl)c(O)c(Cl)c1 | 2.96
20 | O=C(O)Cc1ccc([N+](=O)[O-])cc1 | 1.54
21 | O=C1c2ccccc2C(=O)C1c1cccc(C(F)(F)F)c1 | 3.78
22 | CCc1cc(CC)cc(C2C(=O)c3ccccc3C2=O)c1 | 4.94
23 | O=C(O)Cc1ccc(C2CCCCC2)cc1 | 3.81

Row | SMILES | logP
24 | CCCOc1ccc(CC(=O)O)cc1 | 2.31
25 | O=C1c2ccccc2C(=O)C1c1ccc(-c2ccccc2)cc1 | 4.79
26 | O=C1c2ccccc2C(=O)C1c1ccc(C(F)(F)F)cc1 | 3.78
27 | CC(C)(C)c1cc(C2C(=O)c3ccccc3C2=O)cc(C(C)(C)C)c1 | 6.86
28 | CC(C)c1ccc(C2C(=O)c3ccccc3C2=O)cc1 | 4.43
29 | CCc1cccc(C2C(=O)c3ccccc3C2=O)c1 | 3.92
30 | CC(C)c1cccc(C2C(=O)c3ccccc3C2=O)c1 | 4.43
31 | Cc1cc(C)cc(C2C(=O)c3ccccc3C2=O)c1 | 4.02
32 | O=C1c2ccccc2C(=O)C1c1cccc(Cl)c1 | 3.61
33 | O=[N+]([O-])c1cc(Br)c(O)c(Br)c1 | 3.07
34 | CCCCCCC(=O)O | 2.42
35 | COc1cccc(C2C(=O)c3ccccc3C2=O)c1 | 2.88
36 | CCC(C)(C)c1ccc(CC(=O)O)cc1 | 3.48
37 | CC(C)(C)c1ccc(C2C(=O)c3ccccc3C2=O)cc1 | 4.88
38 | O=C(O)Cc1ccccc1 | 1.41
39 | O=C1c2ccccc2C(=O)C1c1cc(Cl)cc(Cl)c1 | 4.32
40 | Cc1cc(C)c(C(=O)O)c(C)c1 | 3.69
41 | CCCCCCCCCCC(=O)O | 4.42
42 | CCCCCCCCc1ccc(C2C(=O)c3ccccc3C2=O)cc1 | 6.93
43 | Cc1cc(C)c(C)c(C(=O)O)c1C | 4.19
44 | O=C(O)Cc1ccc(C2CCCC2)cc1 | 3.44
45 | O=C(O)Cc1ccc(I)cc1 | 2.53
